Source: ChEMBL document CHEMBL3045208, “Synthesis and Inhibitory Effect on Photosynthetic Electron Transport of 1,3,5-Triazinylcarboxylic Acid Derivatives” (J Pestic Sci, 2005)

Tests used:
[1] = molecular target: Chloroplast thylakoid membrane protein (psbA) (Chenopodium album) (UniProt Q31945); assay: Selectivity ratio of I50 for photosynthetic electron transport protein complex in atrazine-resistant Chenopodium album thylakoid to I50 for photosynthetic electron transport protein complex in wild type Chenopodium album thylakoid
Chloroplast thylakoid membrane protein (psbA) (Chenopodium album), sequence (Q31945 1-69): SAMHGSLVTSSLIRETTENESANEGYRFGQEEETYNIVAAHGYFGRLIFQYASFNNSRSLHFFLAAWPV

[2] = Inhibition of photosynthetic electron transport protein complex in Spinacia oleracea (spinach) leaf thylakoid
[3] = molecular target: Photosystem II protein D1 (Spinacia oleracea, UniProt P69560); assay: Inhibition of photosynthetic electron transport protein complex in Spinacia oleracea (spinach) leaf thylakoid

Row | Structure (SMILES) | Selectivity ratio [1] | pI50 [2] | pI50 [3]
1 | CCNc1nc(Cl)nc(NC(C)C)n1 [ATRAZINE] | 324 | 6.73 | –
2 | Cc1nc(NCc2ccccc2)nc(C(F)(F)F)n1 | 2.6 | 6.85 | –
3 | CCOC(=O)c1nc(C)nc(NC(C)C)n1 | 2.45 | – | 6.11
4 | Cc1nc(NCc2ccccc2)nc(C(F)F)n1 | 2.5 | 5.63 | –
5 | C#CCNc1nc(C)nc(C(=O)OCC)n1 | 1.23 | – | –
6 | COC(=O)c1nc(C)nc(NCc2ccccc2)n1 | – | – | 4
7 | Cc1nc(CF)nc(NCc2ccccc2)n1 | – | 4.98 | –
8 | CCOC(=O)c1nc(C)nc(NCc2ccccc2)n1 | 0.98 | – | 4.88
9 | CCOC(=O)c1nc(C)nc(NC(C)CC)n1 (centres undefined) | – | – | 4.37
